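A five-concentration, 48-hour dose response in 96-well plates underlies each endpoint, interpolated linearly between surrounding concentrations. Here, GI50 denotes the concentration required for 50% inhibition of growth.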 Calls of active or inactive are those of the source. Cut-off read from the data, not from the text of the source: active = GI50 up to about 1.1 µM and inactive = higher.

Among the test systems are A498; ACHN; EKVX; HOP-62; HT-29; K562; OVCAR-3; OVCAR-5; OVCAR-8; RPMI-8226; SF-295; SK-MEL-28; SNB-19; UO-31; COLO 205.
Common to all, as to test: NCI-60 cell line screen, 48 h

Take `CCC1C(=O)OCc2c1cc1n(c2=O)Cc2ccccc2-1` (centres undefined): the GI50 in the assay on A498, in the assay with ACHN, with EKVX, with HOP-62, with HT-29 and in the assay on K562 was > 100 µM (inactive) in each case. The GI50 with OVCAR-3, in the assay on OVCAR-5, in the assay on OVCAR-8, with RPMI-8226, in the assay on SF-295 and in the assay on SK-MEL-28 was > 100 µM (inactive) throughout. Moreover, the GI50 in the assay on SNB-19 and in the assay on UO-31 was > 100 µM (inactive) each time.
Take `COc1ccc(C2=Nc3ccccc3SC(C)C2)cc1` (centres undefined): the GI50 was > 100 µM (inactive) in the assay with A498; > 100 µM (inactive) in the assay with ACHN; > 100 µM (inactive) in the assay on COLO 205; > 100 µM (inactive) in the assay on EKVX; > 100 µM (inactive) in the assay on HOP-62; 62.1 µM (inactive) in the assay with HT-29. Also, the GI50 was 24.4 µM (inactive) with K562; > 100 µM (inactive) in the assay with OVCAR-3; > 100 µM (inactive) in the assay on OVCAR-5; > 100 µM (inactive) in the assay on OVCAR-8; 17.3 µM (inactive) with RPMI-8226; > 100 µM (inactive) with SF-295. Further, the GI50 in the assay with SK-MEL-28, with SNB-19 and in the assay on UO-31 was > 100 µM (inactive) each time.
Turning to `COc1ccc(C2C(Cl)C(=O)N2n2cnc3ccccc3c2=O)cc1` (centres undefined), the GI50 with ACHN was 40.5 µM (inactive); in the assay with COLO 205 it was 62.2 µM (inactive); with EKVX, 50.7 µM (inactive); in the assay with HOP-62 it was > 100 µM (inactive); with HT-29, > 100 µM (inactive); in the assay with K562 it was 89.7 µM (inactive). For the same molecule, the GI50 is 85.7 µM (inactive) with OVCAR-3; > 100 µM (inactive) in the assay with OVCAR-5; 51.5 µM (inactive) with OVCAR-8; 33.4 µM (inactive) in the assay on RPMI-8226; > 100 µM (inactive) in the assay on SF-295; > 100 µM (inactive) in the assay with SK-MEL-28. Also, the GI50 with SNB-19 was > 100 µM (inactive); in the assay with UO-31 it was 71 µM (inactive).
Consider `COc1ccc(OC)c(CCc2cc(OC)c(OC)cc2C)c1`, for which the GI50 was > 100 µM (inactive) in the assay on A498; > 100 µM (inactive) in the assay on ACHN; 33.4 µM (inactive) in the assay on COLO 205; 84.9 µM (inactive) in the assay with EKVX; 49.1 µM (inactive) in the assay with HOP-62; 28.4 µM (inactive) in the assay on HT-29. Besides, the GI50 was 3.64 µM (inactive) in the assay with K562; 3.05 µM (inactive) in the assay with OVCAR-3; > 100 µM (inactive) with OVCAR-5; 48.5 µM (inactive) with OVCAR-8; 14.4 µM (inactive) with RPMI-8226; 6.89 µM (inactive) with SF-295. Besides, the GI50 with SK-MEL-28 is 9.38 µM (inactive); in the assay with SNB-19, 92.7 µM (inactive); in the assay on UO-31, 30.1 µM (inactive).
As for `COC(=O)C(=O)C(/C(=N/N)C(=O)Nc1ccccc1C(N)=O)c1nc2ccc([N+](=O)[O-])cc2nc1O` (centres undefined), the GI50 with A498 was 1.01 µM (active); in the assay with ACHN, > 100 µM (inactive); with COLO 205, > 100 µM (inactive); in the assay with EKVX, 18.4 µM (inactive); in the assay with HOP-62, > 100 µM (inactive); in the assay with HT-29, > 100 µM (inactive). Moreover, the GI50 in the assay on K562, in the assay on OVCAR-3, in the assay with OVCAR-5, in the assay with OVCAR-8, in the assay with RPMI-8226 and with SF-295 was > 100 µM (inactive) in each case. In addition, the GI50 in the assay with SK-MEL-28 is > 100 µM (inactive); with SNB-19, > 100 µM (inactive); with UO-31, 58.2 µM (inactive).
`CCOc1ccccc1NC(=O)CC1C(=O)Nc2ccccc2[S+]1[O-]` (centres undefined): the GI50 in the assay with A498 is > 100 µM (inactive); in the assay with ACHN it was 66.2 µM (inactive); in the assay with EKVX it was 43 µM (inactive); with HT-29, > 100 µM (inactive); with K562 it was 49.7 µM (inactive); in the assay with OVCAR-3 it was 39.5 µM (inactive). The GI50 in the assay with OVCAR-5 was > 100 µM (inactive); with OVCAR-8 it was 43.2 µM (inactive); with RPMI-8226, 11.4 µM (inactive); in the assay on SF-295 it was > 100 µM (inactive); in the assay with SK-MEL-28 it was > 100 µM (inactive); with SNB-19, > 100 µM (inactive). Further, the GI50 in the assay with UO-31 is 85.3 µM (inactive).
For the molecule `S=c1[nH]c(=S)c2nnn(-c3ccccc3)c2[nH]1`, the GI50 in the assay with ACHN, with COLO 205, in the assay with EKVX, in the assay on HOP-62, in the assay on HT-29 and with K562 was > 100 µM (inactive) each time. Besides, the GI50 in the assay on OVCAR-3, with OVCAR-5, with OVCAR-8, with RPMI-8226, with SK-MEL-28 and in the assay on SNB-19 was > 100 µM (inactive) in each case. The GI50 in the assay with UO-31 was > 100 µM (inactive).
For `CCCCCCCCCCCC[N+]12CC[N+](C)(CC1)CC2`, the GI50 with ACHN is 55.1 µM (inactive); in the assay with COLO 205 it was 5.28 µM (inactive); with EKVX it was > 100 µM (inactive); with HOP-62, 29.2 µM (inactive); with HT-29, 16.4 µM (inactive); in the assay on K562, 23.8 µM (inactive). Also, the GI50 was 64.1 µM (inactive) in the assay on OVCAR-3; 17.1 µM (inactive) with OVCAR-5; > 100 µM (inactive) with OVCAR-8; 15.8 µM (inactive) in the assay on RPMI-8226; 22.3 µM (inactive) with SF-295; > 100 µM (inactive) in the assay with SK-MEL-28. The GI50 was 14 µM (inactive) in the assay with SNB-19 and > 100 µM (inactive) in the assay with UO-31.
For `O=C1OCc2nc3c(c(-c4ccccc4C(F)(F)F)c21)C(=O)OC3`, the GI50 in the assay on A498, with ACHN, with COLO 205, with EKVX, in the assay with HOP-62 and in the assay with K562 was > 100 µM (inactive) in each case. Moreover, the GI50 in the assay on OVCAR-3, in the assay on OVCAR-5, with OVCAR-8, in the assay on RPMI-8226, in the assay on SF-295 and with SK-MEL-28 was > 100 µM (inactive) in each case. Further, the GI50 in the assay on SNB-19 and in the assay with UO-31 was > 100 µM (inactive) each time.
Take `Nc1nc2c(ncn2CCOC(c2ccccc2)P(=O)(O)O)c(=O)[nH]1` (centres undefined): the GI50 with A498, in the assay on ACHN, in the assay on COLO 205, in the assay with EKVX, in the assay on HT-29 and in the assay on OVCAR-3 was > 100 µM (inactive) throughout. In addition, the GI50 in the assay on OVCAR-5, in the assay on OVCAR-8, in the assay with SF-295, with SK-MEL-28, in the assay on SNB-19 and in the assay on UO-31 was > 100 µM (inactive) throughout.
In the case of `O=c1[nH]c2nc3ccccc3c(=O)n2nc1Cc1ccccc1`, the GI50 in the assay with ACHN was > 100 µM (inactive); with COLO 205, > 100 µM (inactive); with EKVX, > 100 µM (inactive); with HOP-62, 16.3 µM (inactive); in the assay with HT-29, > 100 µM (inactive); with K562, > 100 µM (inactive). Besides, the GI50 with OVCAR-3 is 44.2 µM (inactive); with OVCAR-5, > 100 µM (inactive); in the assay with OVCAR-8 it was > 100 µM (inactive); in the assay on RPMI-8226, > 100 µM (inactive); with SF-295, > 100 µM (inactive); in the assay with SK-MEL-28, > 100 µM (inactive). The GI50 in the assay on SNB-19 was > 100 µM (inactive); in the assay with UO-31, 56.8 µM (inactive).
`NC(=O)NNC(=O)CCn1[nH]c(=O)c(Cl)c(Cl)c1=O`: the GI50 in the assay on A498, with ACHN, in the assay with COLO 205, in the assay on EKVX, in the assay on HOP-62 and in the assay on HT-29 was > 100 µM (inactive) throughout. Further, the GI50 in the assay with K562, with OVCAR-3, in the assay on OVCAR-5, in the assay on OVCAR-8, in the assay with SF-295 and in the assay on SK-MEL-28 was > 100 µM (inactive) in each case. Moreover, the GI50 with SNB-19 and with UO-31 was > 100 µM (inactive) throughout.
For the molecule `N#Cc1cccc(C2SCc3nc4ccccc4n32)c1` (centres undefined), the GI50 was 95.9 µM (inactive) in the assay on A498; 74 µM (inactive) with ACHN; > 100 µM (inactive) in the assay with COLO 205; 67.6 µM (inactive) with EKVX; > 100 µM (inactive) in the assay on HOP-62; > 100 µM (inactive) with HT-29. The GI50 in the assay with K562 is 54.6 µM (inactive); with OVCAR-5 it was 48 µM (inactive); in the assay with OVCAR-8, > 100 µM (inactive); in the assay with SF-295, > 100 µM (inactive); with SK-MEL-28 it was > 100 µM (inactive); in the assay with SNB-19, > 100 µM (inactive). For the same molecule, the GI50 in the assay on UO-31 is 61.1 µM (inactive).
In the case of `O=Cn1c2ccccc2c2ccccc21`, the GI50 in the assay on A498, in the assay on ACHN, in the assay on COLO 205, in the assay on EKVX, with HOP-62 and in the assay on K562 was > 100 µM (inactive) throughout. Also, the GI50 in the assay on OVCAR-3, in the assay with OVCAR-5, in the assay on OVCAR-8, in the assay with RPMI-8226, with SF-295 and with SK-MEL-28 was > 100 µM (inactive) in each case. Further, the GI50 in the assay with SNB-19 and with UO-31 was > 100 µM (inactive) each time.

For the origin of these results see ChEMBL document CHEMBL1201862, “PubChem BioAssay data set” (2004).
